In patent US11053213B2, “Pharmaceutical compounds” (ALMAC DISCOVERY LIMITED, priority 2016, dated 2021) one finds IC50 data, which are given here for 20 molecules.

pIC50: −log10 of the molar value. Some results are limits rather than exact numbers.

USP19, sequence (O94966 whole entry): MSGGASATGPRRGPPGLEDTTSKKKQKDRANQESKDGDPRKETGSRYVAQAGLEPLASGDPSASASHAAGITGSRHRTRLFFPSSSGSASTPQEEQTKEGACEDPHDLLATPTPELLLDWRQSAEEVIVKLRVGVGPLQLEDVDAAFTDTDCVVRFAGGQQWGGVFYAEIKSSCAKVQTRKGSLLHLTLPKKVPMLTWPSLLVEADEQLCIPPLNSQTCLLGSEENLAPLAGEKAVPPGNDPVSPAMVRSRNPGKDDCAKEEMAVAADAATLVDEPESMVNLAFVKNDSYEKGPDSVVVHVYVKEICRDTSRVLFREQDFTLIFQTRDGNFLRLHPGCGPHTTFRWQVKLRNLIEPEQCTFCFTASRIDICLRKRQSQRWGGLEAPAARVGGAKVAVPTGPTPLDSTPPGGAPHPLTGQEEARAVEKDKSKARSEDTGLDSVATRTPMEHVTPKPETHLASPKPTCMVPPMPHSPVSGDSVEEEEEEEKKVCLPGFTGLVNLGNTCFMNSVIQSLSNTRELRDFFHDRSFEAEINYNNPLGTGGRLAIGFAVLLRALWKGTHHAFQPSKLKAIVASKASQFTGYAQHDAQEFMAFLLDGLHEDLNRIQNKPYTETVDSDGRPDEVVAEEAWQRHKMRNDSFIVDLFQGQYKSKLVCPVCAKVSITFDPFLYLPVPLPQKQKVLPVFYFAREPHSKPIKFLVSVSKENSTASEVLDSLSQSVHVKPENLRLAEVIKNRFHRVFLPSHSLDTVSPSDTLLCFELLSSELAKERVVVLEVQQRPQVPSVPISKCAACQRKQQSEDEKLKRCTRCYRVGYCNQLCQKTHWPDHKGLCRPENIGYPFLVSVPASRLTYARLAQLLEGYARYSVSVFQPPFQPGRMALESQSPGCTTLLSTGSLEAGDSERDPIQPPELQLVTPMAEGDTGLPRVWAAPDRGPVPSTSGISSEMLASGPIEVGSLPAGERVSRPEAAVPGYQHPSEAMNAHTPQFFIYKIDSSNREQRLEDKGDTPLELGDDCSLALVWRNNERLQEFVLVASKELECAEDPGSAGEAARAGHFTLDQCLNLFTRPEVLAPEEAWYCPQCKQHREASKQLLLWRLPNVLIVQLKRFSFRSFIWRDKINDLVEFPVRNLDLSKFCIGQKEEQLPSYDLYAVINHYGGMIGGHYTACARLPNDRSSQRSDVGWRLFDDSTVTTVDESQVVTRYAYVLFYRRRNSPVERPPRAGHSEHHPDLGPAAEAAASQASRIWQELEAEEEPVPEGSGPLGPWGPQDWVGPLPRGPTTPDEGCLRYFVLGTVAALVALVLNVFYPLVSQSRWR

The assay addresses USP19 (Homo sapiens (Human), UniProt O94966). In words: USP19 activity assay (fluorescence polarisation, Ubiquitin-Lys-TAMRA substrate). The conditions noted are these: full-length USP19 2.5 nM, 30 min pre-incubation, Ub substrate 500 nM; average of at least two duplicate experiments. The class given is biochemical. On the technique in general: In fluorescence polarisation assays a small probe gives low polarisation when free and higher when bound to something large.
A word on the pIC50: it is the IC50 on a negative log10 scale, so that one unit is a factor of ten. As to `C[C@H](CC(=O)N1CCC(O)(Cn2cc(C#N)c(-c3ccccc3)cc2=O)CC1)c1ccccc1` [Example 114, (R)-1-((4-Hydroxy-1-(3-phenylbutanoyl)piperidin-4-yl)methyl)-6-oxo-4-phenyl-1,6-dihydropyridine-3-carbonitrile], the pIC50 was 4.30 to 5.30.
For the molecule `CN(C)C(=O)c1cn(CC2(O)CCN(C(=O)C3CC34CC4)CC23CCCC3)c(=O)cc1-c1ccccc1` (centres unmarked) [Example 195, 1-((10-Hydroxy-7-(spiro[2.2]pentane-1-carbonyl)-7-azaspiro[4.5]decan-10-yl)methyl)-N,N-dimethyl-6-oxo-4-phenyl-1,6-dihydropyridine-3-carboxamide], the negative-log IC50 (pIC50) was 4.30 to 5.30.
To `CC(C)(CC1CCC1)C(=O)N1CCC(O)(Cn2cnc(-c3ccccc3F)cc2=O)CC1` [Example 59, 3-((1-(3-Cyclobutyl-2,2-dimethylpropanoyl)-4-hydroxypiperidin-4-yl)methyl)-6-(2-fluorophenyl)pyrimidin-4(3H)-one] belongs 4.30 to 5.30.
As to `CC(C)N(C)C(=O)c1cn(CC2(O)CCN(C(=O)[C@H](C)CC3CCCCC3)CC2)c(=O)cc1-c1ccccc1` [Example 87, (R)-1-((1-(3-Cyclohexyl-2-methylpropanoyl)-4-hydroxypiperidin-4-yl)methyl)-N-isopropyl-N-methyl-6-oxo-4-phenyl-1,6-dihydropyridine-3-carboxamide], the pIC50 is 5.30 to 6.30.
Turning to `CN(C)C(=O)c1cn(CC2(O)CCN(C(=O)C3CCC(C(F)(F)F)C3)CC23CCCC3)c(=O)cc1-c1ccccc1` (centres unmarked) [Example 196, 1-((10-Hydroxy-7-(3-(trifluoromethyl)cyclopentane-1-carbonyl)-7-azaspiro[4.5]decan-10-yl)methyl)-N,N-dimethyl-6-oxo-4-phenyl-1,6-dihydropyridine-3-carboxamide], the negative logarithm of the IC50 (pIC50) was 5.30 to 6.30.
To `C[C@H](CC(=O)N1CCC(O)(Cn2cc(-c3ccco3)c(-c3ccccc3)cc2=O)CC1)c1ccccc1` [Example 8, (R)-5-(Furan-2-yl)-1-((4-hydroxy-1-(3-phenylbutanoyl)piperidin-4-yl)methyl)-4-phenylpyridin-2(1H)-one] belongs 4.30 to 5.30.
To `C[C@H](CC1CCCCC1)C(=O)N1CCC(O)(Cn2cnc(-c3cccc(CN)c3)cc2=O)C(C)(C)C1` (stereo partly drawn) [Example 159, 6-(3-(Aminomethyl)phenyl)-3-((1-((R)-3-cyclohexyl-2-methylpropanoyl)-4-hydroxy-3,3-dimethylpiperidin-4-yl)methyl)pyrimidin-4(3H)-one] belongs 5.30 to 6.30.
To `CC(CC1CCC1)C(=O)N1CCC(O)(Cn2cnc(-c3ccccc3F)cc2=O)CC1` (racemic) [Example 57, (R,S)-3-((1-(3-Cyclobutyl-2-methylpropanoyl)-4-hydroxypiperidin-4-yl)methyl)-6-(2-fluorophenyl)pyrimidin-4(3H)-one] belongs 4.30 to 5.30; to `CC(C)N(C)C(=O)c1cn(CC2(O)CCN(C(=O)C[C@@H](C)c3ccccc3)CC2)c(=O)cc1-c1ccccc1C#N` [Example 38, (R)-4-(2-Cyanophenyl)-1-((4-hydroxy-1-(3-phenylbutanoyl)piperidin-4-yl)methyl)-N-isopropyl-N-methyl-6-oxo-1,6-dihydropyridine-3-carboxamide], 3.60 to 4.30.
In the case of `C[C@H](CC(=O)N1CCC(O)(Cn2cc(-c3ccccc3)c(N(C)C)cc2=O)CC1)c1ccccc1` [Example 11, (R)-4-(Dimethylamino)-1-((4-hydroxy-1-(3-phenylbutanoyl)piperidin-4-yl)methyl)-5-phenylpyridin-2(1H)-one], the negative logarithm of the IC50 (pIC50) is 3.60 to 4.30.
To `C[C@H](CC(=O)N1CCC(O)(Cn2cc(C(=O)N3CCC(O)CC3)c(-c3ccccc3)cc2=O)CC1)c1ccccc1` [Example 62, (R)-1-((4-Hydroxy-1-(3-phenylbutanoyl)piperidin-4-yl)methyl)-5-(4-hydroxypiperidine-1-carbonyl)-4-phenylpyridin-2(1H)-one] belongs 5.30 to 6.30.
To `C=CC[C@H](CC1CCCCC1)C(=O)N1CCC(O)(Cn2cnc(-c3ccccc3F)cc2=O)CC1` [Example 110, (R)-3-((1-(2-(Cyclohexylmethyl)pent-4-enoyl)-4-hydroxypiperidin-4-yl)methyl)-6-(2-fluorophenyl)pyrimidin-4(3H)-one] belongs 5.30 to 6.30; to `C[C@H](CC(=O)N1CCC(O)(Cn2cc(-c3cnn(C)c3)c(-c3ccccc3)cc2=O)CC1)c1ccccc1` [Example 109, (R)-1-((4-Hydroxy-1-(3-phenylbutanoyl)piperidin-4-yl)methyl)-5-(1-methyl-1H-pyrazol-4-yl)-4-phenylpyridin-2(1H)-one], 3.60 to 4.30.
To `C[C@H](CC1CCCCC1)C(=O)N1CCC(O)(Cn2cc(C(=O)N3CCN(C)CC3)c(-c3ccccc3)cc2=O)C(C)(C)C1` (stereo partly drawn) [Example 170, 1-((1-((R)-3-Cyclohexyl-2-methylpropanoyl)-4-hydroxy-3,3-dimethylpiperidin-4-yl)methyl)-5-(4-methylpiperazine-1-carbonyl)-4-phenylpyridin-2(1H)-one] belongs over 6.30; to `CN(C)C(=O)c1cn(C[C@@]2(O)CCN(C(=O)[C@H](CCO)CC3CCCCC3)CC2(C)C)c(=O)cc1-c1ccccc1` [Example 165, 1-(((R)-1-((S)-2-(Cyclohexylmethyl)-4-hydroxybutanoyl)-4-hydroxy-3,3-dimethylpiperidin-4-yl)methyl)-N,N-dimethyl-6-oxo-4-phenyl-1,6-dihydropyridine-3-carboxamide], 4.30 to 5.30; to `C[C@H](CC1CCCCC1)C(=O)N1CC[C@@](O)(Cn2cc(C(=O)N(C)C)c(-c3ccccc3F)cc2=O)C(C)(C)C1` [Example 205, 1-(((S)-1-((R)-3-Cyclohexyl-2-methylpropanoyl)-4-hydroxy-3,3-dimethylpiperidin-4-yl)methyl)-4-(2-fluorophenyl)-N,N-dimethyl-6-oxo-1,6-dihydropyridine-3-carboxamide], over 6.30.
On to `CN(C)C(=O)c1cn(CC2(O)CCN(C(=O)C3CCC(F)(F)C3)CC23CCCC3)c(=O)cc1-c1ccccc1` (centres unmarked) [Example 202, 1-((7-(3,3-Difluorocyclopentane-1-carbonyl)-10-hydroxy-7-azaspiro[4.5]decan-10-yl)methyl)-N,N-dimethyl-6-oxo-4-phenyl-1,6-dihydropyridine-3-carboxamide], for which the negative-log IC50 (pIC50) is 3.60 to 4.30.
To `CN(C)C(=O)c1cn(C[C@]2(O)CCN(C(=O)[C@H](CO)CC3CCCCC3)CC2(C)C)c(=O)cc1-c1ccccc1` [Example 152, 1-(((S)-1-((S)-3-Cyclohexyl-2-(hydroxymethyl)propanoyl)-4-hydroxy-3,3-dimethylpiperidin-4-yl)methyl)-N,N-dimethyl-6-oxo-4-phenyl-1,6-dihydropyridine-3-carboxamide] belongs over 6.30.
To `CC1(C)CN(C(=O)CCc2ccccc2)CCC1(O)Cn1cnc(-c2ccccc2F)cc1=O` (racemic) [Example 68, (R,S)-6-(2-Fluorophenyl)-3-((4-hydroxy-3,3-dimethyl-1-(3-phenylpropanoyl)piperidin-4-yl)methyl)pyrimidin-4(3H)-one] belongs 4.30 to 5.30.
To `C[C@H](CC(=O)N1CCC(O)(Cc2cnc(-c3ccccc3)[nH]c2=O)CC1)c1ccccc1` [Example 33, (R)-5-((4-Hydroxy-1-(3-phenylbutanoyl)piperidin-4-yl)methyl)-2-phenylpyrimidin-4(3H)-one] belongs 4.30 to 5.30.
